Data from patent publication US20040242503A1 (priority 2000, published 2004).
Like-named read-outs stand apart in the source and are kept apart here. Marks after values point to notes of the source that are not given here. One block for each molecule: values may come before it.

Tests used:
LLC-PK1 cells = assay: Apical uptake of L-DOPA in LLC-PK1 cells; assay type: cell-based, porcine
Experimental: Cell culture LLC-PK1 cells, a porcine-derived proximal renal tubule epithelial cell line which retains several properties of proximal tubular epithelial cells in culture (Hull, R. N., et al., 1976, In Vitro 12; 670-677), were obtained from the American Type Culture Collection (Rockville, Md.). LLC-PK1 cells (ATCC CRL 1392; passages 198-206) and were maintained in a humidified atmosphere of 5% CO2-95% air at 37° C. and grown in Medium 199 (Sigma Chemical Company, St. Louis, Mo., USA) supplemented with 100 U/ml penicillin G, 0.25 μg/ml amphotericin B, 100 μg/ml streptomycin (Sigma), 3% foetal bovine serum (Sigma) and 25 mM N-2-hydroxyethylpiperazine-N'-2-ethanesulfonic acid (HEPES; Sigma). For subculturing, the cells were dissociated with 0.05% trypsin-EDTA, split 1:4 and subcultured in Costar flasks with 75- or 162-cm^2 growth areas (Costar, Badhoevedorp, The Netherlands). […] The cell medium was changed every 2 days, and the cells reached confluence after 3-5 days of incubation. For 24 hours prior to each experiment, the cell medium was free of foetal bovine serum. […] On the day of the experiment, the growth medium was aspirated and the cells washed with Hanks' medium; thereafter, the cell monolayers were preincubated for 15 min in Hanks' medium at 37° C. The Hanks' medium had the following composition (mM): […] Test substances were applied from the apical side only, and were present during the preincubation and incubation periods. During preincubation and incubation, the cells were continuously shaken and maintained at 37° C.

[1] = target: T1, aromatic L-amino acid decarboxylase (AADC) (Sus scrofa, UniProt P80041); assay: Decarboxylation of L-DOPA (AADC activity) in LLC-PK1 cells; assay type: cell-based, porcine; details: read-out: inhibition of AADC activity IC50
T1 construct: host or cells: LLC-PK1 cells
T1 sequence (P80041 1-486): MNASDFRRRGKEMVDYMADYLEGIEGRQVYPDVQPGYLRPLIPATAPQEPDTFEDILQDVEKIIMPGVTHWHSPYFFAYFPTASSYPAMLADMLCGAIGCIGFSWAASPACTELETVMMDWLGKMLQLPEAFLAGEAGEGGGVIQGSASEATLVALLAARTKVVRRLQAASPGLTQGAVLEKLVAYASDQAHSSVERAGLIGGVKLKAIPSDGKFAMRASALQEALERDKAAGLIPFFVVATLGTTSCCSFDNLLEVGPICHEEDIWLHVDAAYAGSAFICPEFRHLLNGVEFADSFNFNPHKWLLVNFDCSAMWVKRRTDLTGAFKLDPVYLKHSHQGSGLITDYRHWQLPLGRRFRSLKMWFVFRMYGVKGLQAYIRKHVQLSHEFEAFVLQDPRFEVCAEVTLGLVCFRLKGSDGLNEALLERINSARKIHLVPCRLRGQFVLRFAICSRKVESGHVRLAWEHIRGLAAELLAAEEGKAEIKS
Experimental: On the day of the experiment, the growth medium was aspirated and the cells (LLC-PK1) washed with Hanks' medium; thereafter, the cell monolayers were preincubated for 15 min in Hanks' medium at 37° C. […] The incubation medium also contained pyridoxal phosphate (120 μM), tolcapone (1 μM) and pargyline (100 μM). […] After preincubation, cells were incubated for 6 min in Hanks' medium with 250 μM LDOPA. The reaction was terminated by the addition of 250 μl of […] perchloric acid. The acidified samples were stored at 4° C. before injection into the high pressure liquid chromatograph for the assay of dopamine.
(§1) The high pressure liquid chromatograph system consisted of a pump (Gilson model 302; Gilson Medical Electronics, Villiers le Bel, France) connected to a manometric module (Gilson model 802 C) and a stainless-steel 5 μm ODS column (Biophase; Bioanalytical Systems, West Lafayette, Ind.) of 25 cm length; samples were injected by means of an automatic sample injector (Gilson model 231) connected to a Gilson dilutor (model 401). […] The detection was carried out electrochemically with a glassy carbon electrode, an Ag/AgCl reference electrode and an amperometric detector (Gilson model 141); the detector cell was operated at 0.75 V. The current produced was monitored using the Gilson 712 HPLC software.

[2] = target: T2, aromatic L-amino acid decarboxylase (AADC) (Rattus norvegicus, UniProt P14173); assay: Assay of AADC in rat tissues (brain, liver, kidney) under Vmax conditions; assay type: in vivo; details: 30 mg/kg
T2 construct: from tissue; host or cells: brain, liver and kidney of male Wistar rats
T2 sequence (P14173 1-480): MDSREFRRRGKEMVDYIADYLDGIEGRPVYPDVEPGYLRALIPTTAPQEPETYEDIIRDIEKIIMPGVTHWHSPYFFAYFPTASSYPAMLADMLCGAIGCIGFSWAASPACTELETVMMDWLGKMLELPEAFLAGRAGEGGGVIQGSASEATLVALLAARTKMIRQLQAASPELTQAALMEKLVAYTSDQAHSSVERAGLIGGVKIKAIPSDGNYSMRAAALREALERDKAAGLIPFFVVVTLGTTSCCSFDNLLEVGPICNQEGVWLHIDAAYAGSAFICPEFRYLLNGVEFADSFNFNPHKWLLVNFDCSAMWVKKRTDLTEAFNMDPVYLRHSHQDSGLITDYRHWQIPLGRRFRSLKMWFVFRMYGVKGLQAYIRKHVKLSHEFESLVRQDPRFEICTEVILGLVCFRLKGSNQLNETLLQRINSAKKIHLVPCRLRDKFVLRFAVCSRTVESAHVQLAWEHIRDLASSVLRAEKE
Experimental: Male Wistar rats weighing 170-280 g, kept two per cage under controlled environmental conditions (12 h light/dark cycle and room temperature 24° C.), were used in all experiments.
The reaction was stopped by the addition of 500 μl of 2 M perchloric acid and the preparations kept at 4° C. for 60 min. The samples were then centrifuged (200 g, 2 min. 4° C.) and 500 μl aliquots of the supernatant filtered on Spin-X filter tubes (Costar) were used for the assay of dopamine.
Since high doses of benserazide may result in inhibition of AADC in brain (Da Prada, et al., 1987, Eur.

[3] = Levels of L-DOPA in plasma of rats; assay type: in vivo, rat; details: oral, 30 min before L-DOPA 12 mg/kg plus benserazide 3 mg/kg
Experimental: as §1, with “Male Wistar rats weighing 170-280 g, kept two per cage under controlled environmental conditions (12 h light/dark cycle and room temperature 24° C.), were used in all experiments. […] The high” for “The high”, “Medical Electronics, […] Bel, France)” for “Medical Electronics, Villiers le Bel, France)”

[4] = Levels of L-DOPA, dopamine, DOPAC and HVA in rat brain and kidney; assay type: in vivo
Experimental: as §1, with “Male Wistar rats weighing 170-280 g, kept two per cage under controlled environmental conditions (12 h light/dark cycle and room temperature 24° C.), were used in all experiments. […] The high” for “The high”, “Medical Electronics, […] Bel, France)” for “Medical Electronics, Villiers le Bel, France)”

[5] = brain, R 0.3 mg/kg 30 min before L 12 mg/kg + B 3 mg/kg, 60 min after L + B
[6] = brain, R 1.0 mg/kg 30 min before L 12 mg/kg + B 3 mg/kg, 60 min after L + B
[7] = brain, R 3.0 mg/kg 30 min before L 12 mg/kg + B 3 mg/kg, 60 min after L + B
[8] = brain, R 10.0 mg/kg 30 min before L 12 mg/kg + B 3 mg/kg, 60 min after L + B
[9] = brain, R 30.0 mg/kg 30 min before L 12 mg/kg + B 3 mg/kg, 60 min after L + B
[10] = kidney, R 0.3 mg/kg 30 min before L 12 mg/kg + B 3 mg/kg, 60 min after L + B
[11] = kidney, R 1.0 mg/kg 30 min before L 12 mg/kg + B 3 mg/kg, 60 min after L + B
[12] = kidney, R 3.0 mg/kg 30 min before L 12 mg/kg + B 3 mg/kg, 60 min after L + B
[13] = kidney, R 10.0 mg/kg 30 min before L 12 mg/kg + B 3 mg/kg, 60 min after L + B
[14] = kidney, R 30.0 mg/kg 30 min before L 12 mg/kg + B 3 mg/kg, 60 min after L + B
[15] = brain, L-DOPA 12 mg/kg alone, 60 min

Compound: NC1(C(=O)O)CC2CCC1C2 (centres unmarked) [BHC, 2-aminobicyclo(2,2,1)-heptane-2-carboxylic acid]
Vmax for L-DOPA uptake in presence of inhibitor (LLC-PK1 cells; 1 mM BHC): 3783±244 pmol/mg protein/6 min | type of inhibitory effect on the accumulation of L-DOPA (LLC-PK1 cells; 1 mM BHC): competitive type | IC50 (LLC-PK1 cells; Sus scrofa, LLC-PK1, read-out: inhibition of L-DOPA uptake IC50): 407 µM | Km (LLC-PK1 cells; read-out: Km for L-DOPA uptake in presence of inhibitor, 1 mM BHC): 130 ± 19 µM

IC50 [1]: 0.07 µM
Compound: NC(CO)C(=O)NNCc1ccc(O)c(O)c1O (centres unmarked) [benserazide]

kidney AADC activity reduction ([2]; rat kidney): 38% | liver AADC activity reduction ([2]; rat liver): 48%
Compound: Oc1ccc(C=Cc2cc(O)cc(O)c2)cc1 [resveratrol]
effect on plasma levels of L-DOPA [3]: Increases in plasma levels of L-DOPA | DA level [4, 5]: 280.6 ± 36.6 ng/g | DOPAC level [4, 5]: 192.7 ± 13.8 ng/g | HVA level [4, 5]: 3975.5 ± 462.1 ng/g | L-DOPA level [4, 5]: 146.8 ± 14.9 ng/g | DOPAC level [4, 6]: 149.9 ± 15.8 ng/g | HVA level [4, 6]: 3068.6 ± 234.4 ng/g | L-DOPA level [4, 6]: 143.5 ± 29.1 ng/g | DA level [4, 7]: 412.5 ± 79.7 ng/g | DOPAC level [4, 7]: 221.2 ± 33.8 ng/g | HVA level [4, 7]: 3026.5 ± 337.2 ng/g | L-DOPA level [4, 7]: 180.9 ± 26.3 ng/g | DA level [4, 8]: 531.9 ± 41.6 ng/g | DOPAC level [4, 8]: 316.6 ± 20.9 ng/g | HVA level [4, 8]: 2449.5 ± 93.5 ng/g | L-DOPA level [4, 8]: 208.4 ± 21.8 ng/g | DA level [4, 9]: 403.2 ± 99.2 ng/g | DOPAC level [4, 9]: 257.8 ± 51.1 ng/g | HVA level [4, 9]: 3324.8 ± 529.4 ng/g | L-DOPA level [4, 9]: 294.0 ± 52.1 ng/g | DA level [4, 10]: 685.4 + 148.4 ng/g | DOPAC level [4, 10]: 564.2 + 183.0 ng/g | HVA level [4, 10]: 27169.4 ± 2617.0 ng/g | L-DOPA level [4, 10]: 857.4 + 103.3* ng/g | DA level [4, 11]: 622.5 + 61.5* ng/g | DOPAC level [4, 11]: 598.3 + 144.5 ng/g | HVA level [4, 11]: 26254.3 ± 3677.0 ng/g | L-DOPA level [4, 11]: 739.3 + 144.7* ng/g | DA level [4, 12]: 615.0 + 60.8* ng/g | DOPAC level [4, 12]: 420.4 + 33.3* ng/g | HVA level [4, 12]: 29094.8 ± 3342.3 ng/g | L-DOPA level [4, 12]: 1016.2 + 121.5* ng/g | DA level [4, 13]: 710.3 + 67.2* ng/g | DOPAC level [4, 13]: 476.3 + 52.8* ng/g | HVA level [4, 13]: 25779.8 ± 3941.7 ng/g | L-DOPA level [4, 13]: 949.3 + 126.4* ng/g | DA level [4, 14]: 864.4 + 316.1* ng/g | DOPAC level [4, 14]: 731.9 + 427.3 ng/g | HVA level [4, 14]: 27923.6 ± 10686.2 ng/g | L-DOPA level [4, 14]: 1198.6 + 225.1* ng/g

Compound: CNC(C)(C)C(=O)O [MeAIB, N-(methylamino)-isobutyric acid]
effect on the uptake of L-DOPA (LLC-PK1 cells; LLC-PK1 cells): failed to affect

Compound: N[C@@H](Cc1ccc(O)c(O)c1)C(=O)O [L-DOPA, L-3,4-dihydroxyphenylalanine, reference compound]
Vmax of L-DOPA apical transporter (LLC-PK1 cells; 6 min, 1 to 250 μM substrate): 3069±224 pmol mg protein/6 min | intracellular L-DOPA concentration (LLC-PK1 cells; 6 min incubation, medium concentration 0.5 μM): 4.0 ± 0.4 µM | Km (LLC-PK1 cells; read-out: Km of L-DOPA apical transporter, 6 min, 1 to 250 μM substrate): 47 ± 8 µM | DA level [4, 15]: 201.0 ± 19.6 ng/g | DOPAC level [4, 15]: 24.3 ± 2.4 ng/g | HVA level [4, 15]: 320.6 ± 37.4 ng/g | L-DOPA level [4, 15]: 9.6 ± 1.0 ng/g | DA level ([4]; kidney, L-DOPA 12 mg/kg alone, 60 min): 120.8 ± 27.5 ng/g
